Test results taken from ChEMBL document CHEMBL1142358, “3-amino-benzo[d]isoxazoles as novel multitargeted inhibitors of receptor tyrosine kinases” (J Med Chem, 2008).
Calls of active or inactive are those of the source. The rule behind the calls is not given here.

How the values were obtained:
[1] = molecular target: Vascular endothelial growth factor receptor 1 (Homo sapiens, UniProt P17948); experiment: Inhibition of FLT1 by HTRF assay
[2] = molecular target: Mast/stem cell growth factor receptor Kit (Homo sapiens, UniProt P10721); experiment: Inhibition of KIT by HTRF assay
Chain of Mast/stem cell growth factor receptor Kit (P10721 whole entry): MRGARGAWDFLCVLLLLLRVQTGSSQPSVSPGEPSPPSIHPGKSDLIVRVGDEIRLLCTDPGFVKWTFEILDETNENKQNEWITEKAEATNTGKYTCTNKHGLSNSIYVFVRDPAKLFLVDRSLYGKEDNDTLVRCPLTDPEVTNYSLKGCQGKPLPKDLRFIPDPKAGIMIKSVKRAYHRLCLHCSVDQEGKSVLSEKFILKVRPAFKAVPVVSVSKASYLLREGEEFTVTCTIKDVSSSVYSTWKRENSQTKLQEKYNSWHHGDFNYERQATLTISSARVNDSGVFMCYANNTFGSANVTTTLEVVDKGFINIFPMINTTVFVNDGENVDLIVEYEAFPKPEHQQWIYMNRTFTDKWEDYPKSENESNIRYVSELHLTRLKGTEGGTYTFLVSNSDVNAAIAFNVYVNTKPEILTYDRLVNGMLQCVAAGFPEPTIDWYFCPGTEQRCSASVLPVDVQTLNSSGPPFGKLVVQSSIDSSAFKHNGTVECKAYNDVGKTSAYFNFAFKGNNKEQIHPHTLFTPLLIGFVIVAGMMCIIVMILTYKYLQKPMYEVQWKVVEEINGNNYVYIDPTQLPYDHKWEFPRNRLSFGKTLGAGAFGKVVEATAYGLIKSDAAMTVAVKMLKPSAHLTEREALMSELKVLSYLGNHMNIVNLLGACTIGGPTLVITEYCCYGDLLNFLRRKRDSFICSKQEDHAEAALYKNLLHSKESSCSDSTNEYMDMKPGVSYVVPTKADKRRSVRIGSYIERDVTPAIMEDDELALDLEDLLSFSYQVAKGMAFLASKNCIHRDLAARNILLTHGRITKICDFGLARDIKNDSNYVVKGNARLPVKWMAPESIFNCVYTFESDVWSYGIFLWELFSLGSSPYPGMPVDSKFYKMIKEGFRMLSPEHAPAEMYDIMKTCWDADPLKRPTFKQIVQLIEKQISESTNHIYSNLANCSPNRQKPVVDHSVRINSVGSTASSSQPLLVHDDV

[3] = molecular target: Platelet-derived growth factor receptor beta (Homo sapiens, UniProt P09619); experiment: Inhibition of PDGFRbeta by HTRF assay
Chain of Platelet-derived growth factor receptor beta (P09619 whole entry): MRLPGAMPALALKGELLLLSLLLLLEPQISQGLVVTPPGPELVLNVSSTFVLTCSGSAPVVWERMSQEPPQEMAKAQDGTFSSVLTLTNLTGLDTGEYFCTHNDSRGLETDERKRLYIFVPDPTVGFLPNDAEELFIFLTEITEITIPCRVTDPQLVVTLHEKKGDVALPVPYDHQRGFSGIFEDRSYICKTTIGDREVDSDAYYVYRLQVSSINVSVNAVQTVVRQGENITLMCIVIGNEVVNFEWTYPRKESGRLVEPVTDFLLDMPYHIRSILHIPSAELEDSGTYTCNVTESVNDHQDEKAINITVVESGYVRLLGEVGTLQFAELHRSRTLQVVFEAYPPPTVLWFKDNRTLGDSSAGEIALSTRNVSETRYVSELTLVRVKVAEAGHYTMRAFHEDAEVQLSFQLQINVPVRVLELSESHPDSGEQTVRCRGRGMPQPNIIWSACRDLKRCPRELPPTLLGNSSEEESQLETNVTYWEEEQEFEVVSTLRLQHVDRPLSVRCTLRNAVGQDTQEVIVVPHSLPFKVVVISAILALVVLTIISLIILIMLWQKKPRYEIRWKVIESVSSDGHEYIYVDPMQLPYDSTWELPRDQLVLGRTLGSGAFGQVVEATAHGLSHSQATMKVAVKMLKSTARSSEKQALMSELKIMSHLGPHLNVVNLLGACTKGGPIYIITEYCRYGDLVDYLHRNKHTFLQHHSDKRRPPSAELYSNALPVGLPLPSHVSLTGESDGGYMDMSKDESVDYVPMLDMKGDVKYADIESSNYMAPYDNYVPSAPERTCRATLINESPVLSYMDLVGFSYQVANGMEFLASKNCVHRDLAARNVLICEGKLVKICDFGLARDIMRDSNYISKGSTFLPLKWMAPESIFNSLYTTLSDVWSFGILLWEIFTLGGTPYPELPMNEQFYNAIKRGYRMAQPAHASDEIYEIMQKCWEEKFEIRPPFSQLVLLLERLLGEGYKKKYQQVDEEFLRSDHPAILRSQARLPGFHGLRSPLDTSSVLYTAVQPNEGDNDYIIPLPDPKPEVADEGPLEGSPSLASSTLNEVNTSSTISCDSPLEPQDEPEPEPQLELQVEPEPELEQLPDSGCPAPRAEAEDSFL

[4] = Half life in mouse at 1 mg/kg, iv; type: ADME, organism-based; parameters: dose 1 mg/kg, route intravenous; details: in vivo
[5] = Volume of distribution in mouse at 1 mg/kg, iv; type: ADME, organism-based; parameters: dose 1 mg/kg, route intravenous; details: in vivo
[6] = molecular target: Proto-oncogene tyrosine-protein kinase Src (Homo sapiens, UniProt P12931); experiment: Inhibition of SRC by HTRF assay
[7] = molecular target: Tyrosine-protein kinase HCK (Homo sapiens, UniProt P08631); experiment: Inhibition of HCK by HTRF assay
Angiopoietin-1 receptor = Angiopoietin-1 receptor (Homo sapiens, UniProt Q02763); experiment: Inhibition of TIE2 by HTRF assay
[8] = Inhibition of FGFR by HTRF assay
[9] = molecular target: Tyrosine-protein kinase Lyn (Homo sapiens, UniProt P07948); experiment: Inhibition of LYN by HTRF assay
Chain of Tyrosine-protein kinase Lyn (P07948 whole entry): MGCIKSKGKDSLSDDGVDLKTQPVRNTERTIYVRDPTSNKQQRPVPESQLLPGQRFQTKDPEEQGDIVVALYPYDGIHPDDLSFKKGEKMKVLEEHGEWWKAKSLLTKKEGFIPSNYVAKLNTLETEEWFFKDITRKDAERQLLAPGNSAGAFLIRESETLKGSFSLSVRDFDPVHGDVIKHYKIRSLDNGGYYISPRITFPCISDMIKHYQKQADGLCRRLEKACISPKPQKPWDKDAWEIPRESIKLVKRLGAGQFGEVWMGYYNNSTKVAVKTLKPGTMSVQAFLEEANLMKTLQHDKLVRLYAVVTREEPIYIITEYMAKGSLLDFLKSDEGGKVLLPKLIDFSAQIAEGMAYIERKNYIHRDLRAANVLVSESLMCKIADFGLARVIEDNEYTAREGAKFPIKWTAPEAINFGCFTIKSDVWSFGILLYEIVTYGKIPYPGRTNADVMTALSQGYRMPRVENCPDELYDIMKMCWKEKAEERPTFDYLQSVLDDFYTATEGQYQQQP

HT-1080 [10] = experiment: Inhibition of tumor growth in human HT1080 cells xenografted in SCID/Beige mouse at 10 mg/kg/day, bid relative to control; type: functional; details: read-out: TGI
[11] = molecular target: Macrophage colony-stimulating factor 1 receptor (Homo sapiens, UniProt P07333); experiment: Inhibition of CSF1R by HTRF assay
Chain of Macrophage colony-stimulating factor 1 receptor (P07333 whole entry): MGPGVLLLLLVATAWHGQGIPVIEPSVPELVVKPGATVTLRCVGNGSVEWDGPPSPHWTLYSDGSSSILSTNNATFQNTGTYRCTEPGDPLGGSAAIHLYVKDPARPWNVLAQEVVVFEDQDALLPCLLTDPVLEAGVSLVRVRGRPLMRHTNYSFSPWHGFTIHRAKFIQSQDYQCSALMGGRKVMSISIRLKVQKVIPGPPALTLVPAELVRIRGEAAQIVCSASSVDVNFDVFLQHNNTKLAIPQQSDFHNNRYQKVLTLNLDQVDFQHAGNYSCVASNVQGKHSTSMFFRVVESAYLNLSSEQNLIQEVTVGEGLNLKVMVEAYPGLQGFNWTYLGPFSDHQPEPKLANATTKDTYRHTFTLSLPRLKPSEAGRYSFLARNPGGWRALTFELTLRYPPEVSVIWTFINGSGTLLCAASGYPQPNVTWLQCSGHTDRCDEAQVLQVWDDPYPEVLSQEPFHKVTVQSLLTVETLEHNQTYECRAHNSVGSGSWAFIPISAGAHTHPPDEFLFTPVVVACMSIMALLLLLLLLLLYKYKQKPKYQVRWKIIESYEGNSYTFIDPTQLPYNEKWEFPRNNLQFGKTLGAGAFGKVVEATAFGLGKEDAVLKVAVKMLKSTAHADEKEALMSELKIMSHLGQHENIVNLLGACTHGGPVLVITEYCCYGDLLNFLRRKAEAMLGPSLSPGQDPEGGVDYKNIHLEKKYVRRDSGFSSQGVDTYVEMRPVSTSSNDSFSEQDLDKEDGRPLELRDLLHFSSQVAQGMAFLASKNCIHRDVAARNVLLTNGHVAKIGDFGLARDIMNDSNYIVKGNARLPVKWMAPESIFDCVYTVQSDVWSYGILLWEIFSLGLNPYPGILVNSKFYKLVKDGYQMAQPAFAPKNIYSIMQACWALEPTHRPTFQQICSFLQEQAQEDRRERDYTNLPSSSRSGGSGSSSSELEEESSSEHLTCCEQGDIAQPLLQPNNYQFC

[12] = molecular target: T1, Receptor-type tyrosine-protein kinase FLT3 (Homo sapiens, UniProt P36888)
T1 sequence (P36888 whole entry): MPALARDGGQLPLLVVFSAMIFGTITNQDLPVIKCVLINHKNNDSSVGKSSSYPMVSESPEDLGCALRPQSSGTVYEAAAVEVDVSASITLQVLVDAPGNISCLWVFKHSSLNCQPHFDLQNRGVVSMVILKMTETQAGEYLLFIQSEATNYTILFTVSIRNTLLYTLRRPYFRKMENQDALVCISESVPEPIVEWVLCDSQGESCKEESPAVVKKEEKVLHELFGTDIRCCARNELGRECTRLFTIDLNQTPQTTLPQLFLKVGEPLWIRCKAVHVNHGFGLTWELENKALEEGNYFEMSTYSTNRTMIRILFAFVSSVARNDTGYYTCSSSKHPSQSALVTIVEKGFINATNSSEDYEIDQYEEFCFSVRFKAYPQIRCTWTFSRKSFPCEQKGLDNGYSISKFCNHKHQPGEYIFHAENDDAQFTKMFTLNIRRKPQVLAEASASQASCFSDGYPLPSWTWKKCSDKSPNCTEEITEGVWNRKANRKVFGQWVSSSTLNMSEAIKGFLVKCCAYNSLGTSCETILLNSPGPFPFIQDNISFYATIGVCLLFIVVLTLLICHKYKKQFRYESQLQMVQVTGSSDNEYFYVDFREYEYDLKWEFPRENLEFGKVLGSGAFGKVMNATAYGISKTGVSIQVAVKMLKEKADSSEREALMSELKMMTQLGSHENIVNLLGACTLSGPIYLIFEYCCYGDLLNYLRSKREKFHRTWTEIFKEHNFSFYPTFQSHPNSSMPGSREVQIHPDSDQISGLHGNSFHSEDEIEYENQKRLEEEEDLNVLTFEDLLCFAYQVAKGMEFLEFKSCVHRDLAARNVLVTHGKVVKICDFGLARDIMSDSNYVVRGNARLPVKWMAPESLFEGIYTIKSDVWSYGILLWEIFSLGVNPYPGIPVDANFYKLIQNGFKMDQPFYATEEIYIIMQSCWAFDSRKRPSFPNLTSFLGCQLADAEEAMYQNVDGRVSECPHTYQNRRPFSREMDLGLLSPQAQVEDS
Description: Inhibition of FLT3 by HTRF assay

Mus musculus = experiment: Inhibition of estradiol-induced uterine edema in orally dosed BALB/c mouse edema model; type: functional; details: po
[13] = Oral bioavailability in mouse at 10 mg/kg; type: ADME, organism-based; details: in vivo
[14] = Clearance in mouse at 1 mg/kg, iv; type: ADME, organism-based; parameters: dose 1 mg/kg, route intravenous; details: in vivo
[15] = AUC in mouse at 10 mg/kg, po; type: ADME, organism-based; parameters: dose 10 mg/kg, route oral; details: plasma
[16] = AUC (0 to 24 hrs) in mouse plasma at 10 mg/kg/day; type: ADME, organism-based; parameters: time < 24 hr, dose 10 mg/kg/day
[17] = molecular target: Receptor-type tyrosine-protein kinase FLT3 (Homo sapiens) (UniProt P36888)
Description: Inhibition of FLT3 by HTRF assay

[18] = Clearance in mouse at 3 mg/kg, iv; type: ADME, organism-based; parameters: dose 3 mg/kg, route intravenous; details: in vivo
[19] = Half life in mouse at 3 mg/kg, iv; type: ADME, organism-based; parameters: dose 3 mg/kg, route intravenous; details: in vivo
[20] = Volume of distribution in mouse at 3 mg/kg, iv; type: ADME, organism-based; parameters: dose 3 mg/kg, route intravenous; details: in vivo
[21] = molecular target: Vascular endothelial growth factor receptor 2 (Homo sapiens, UniProt P35968)
Chain of Vascular endothelial growth factor receptor 2 (P35968 whole entry): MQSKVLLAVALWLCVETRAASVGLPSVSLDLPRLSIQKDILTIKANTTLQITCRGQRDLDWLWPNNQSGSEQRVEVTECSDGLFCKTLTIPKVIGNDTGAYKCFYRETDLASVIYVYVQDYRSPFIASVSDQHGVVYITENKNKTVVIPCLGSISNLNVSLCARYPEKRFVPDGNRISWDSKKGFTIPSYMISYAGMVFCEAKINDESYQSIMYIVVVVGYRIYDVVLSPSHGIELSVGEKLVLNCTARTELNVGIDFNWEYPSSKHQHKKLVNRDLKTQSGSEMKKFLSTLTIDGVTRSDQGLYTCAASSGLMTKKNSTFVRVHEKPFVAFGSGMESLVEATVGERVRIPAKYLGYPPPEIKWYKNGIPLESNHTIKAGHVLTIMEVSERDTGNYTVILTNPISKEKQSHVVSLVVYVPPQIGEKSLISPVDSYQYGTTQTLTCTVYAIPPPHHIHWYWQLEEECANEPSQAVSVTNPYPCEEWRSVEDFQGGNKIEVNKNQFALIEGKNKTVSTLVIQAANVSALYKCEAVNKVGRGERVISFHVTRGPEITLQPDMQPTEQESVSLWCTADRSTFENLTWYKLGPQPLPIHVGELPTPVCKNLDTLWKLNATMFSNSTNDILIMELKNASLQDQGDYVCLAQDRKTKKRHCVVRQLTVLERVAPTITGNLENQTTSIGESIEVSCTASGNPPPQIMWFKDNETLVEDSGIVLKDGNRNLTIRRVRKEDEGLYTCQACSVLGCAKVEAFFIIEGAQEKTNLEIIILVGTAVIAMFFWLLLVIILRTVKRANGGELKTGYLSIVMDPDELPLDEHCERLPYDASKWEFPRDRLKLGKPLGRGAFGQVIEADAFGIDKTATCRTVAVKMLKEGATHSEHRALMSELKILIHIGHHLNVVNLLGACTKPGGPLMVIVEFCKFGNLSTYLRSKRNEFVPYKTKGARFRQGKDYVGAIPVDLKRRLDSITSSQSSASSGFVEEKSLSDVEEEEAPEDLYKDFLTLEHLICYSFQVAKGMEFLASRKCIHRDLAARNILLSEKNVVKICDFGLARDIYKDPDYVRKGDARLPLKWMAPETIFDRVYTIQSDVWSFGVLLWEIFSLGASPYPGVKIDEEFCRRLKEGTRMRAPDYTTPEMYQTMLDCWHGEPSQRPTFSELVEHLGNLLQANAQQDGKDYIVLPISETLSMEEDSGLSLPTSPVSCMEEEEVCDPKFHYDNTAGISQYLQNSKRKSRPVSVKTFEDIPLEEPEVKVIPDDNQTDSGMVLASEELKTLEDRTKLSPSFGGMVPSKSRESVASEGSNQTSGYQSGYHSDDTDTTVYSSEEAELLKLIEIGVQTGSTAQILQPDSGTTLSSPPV
Description: Inhibition of KDR by HTRF assay

HT-1080 [22] = experiment: Inhibition of tumor growth in human HT1080 cells xenografted in SCID/Beige mouse at 30 mg/kg/day, bid relative to control; details: HT-1080, read-out: TGI
[23] = molecular target: Voltage-gated inwardly rectifying potassium channel KCNH2 (Homo sapiens, UniProt Q12809)
Description: Displacement of [3H]dofetilide from human ERG expressed in HEK293 cells

[24] = AUC (0 to 24 hrs) in mouse plasma at 30 mg/kg/day; type: ADME, organism-based; parameters: dose 30 mg/kg/day, time < 24 hr

In the case of COc1ccc(-c2ccc(NC(=O)Nc3cccc(C(F)(F)F)c3)cc2)c2c(N)noc12, the IC50 [1] is reported as 16 nM, the IC50 [2] is reported as 56 nM and the IC50 [3] is reported as 130 nM. It also gave a half-life [4] of 54 min, a Vd [5] of 2.2 L/kg and an IC50 [6] greater than 50 µM. The IC50 [7] was greater than 50 µM, the IC50 (Angiopoietin-1 receptor) was 270 nM and the IC50 [8] was 3000 nM. For the same compound, the IC50 [9] was greater than 50 µM, the inhibition in vivo at 10 mg/kg/day (HT-1080 [10]) was 81% and the IC50 [11] was 30 nM. It also gave an IC50 [12] of 19 nM, an ED50 (Mus musculus) of 2 mg/kg and a bioavailability [13] of 100%. It also gave a clearance [14] of 28.3 mL/min/kg, an AUC [15] of 30.6 µM·h and an AUC at 24 h [16] of 13.2 µM·h.

With COc1ccc(NC(=O)Nc2ccc(-c3cccc4onc(N)c34)cc2)cc1 the IC50 [2] was 5 nM and the Activity [17] was “inactive”.

Work on COc1ccc(-c2ccc(NC(=O)Nc3cccc(Br)c3)cc2)c2c(N)noc12 yielded a clearance [18] of 18.3 mL/min/kg, an ED50 (Mus musculus) of 1 mg/kg and a bioavailability [13] of 71%. The half-life [19] was 114 min, the Vd [20] was 3.1 L/kg and the AUC [15] was 13.8 µM·h.

In the case of Nc1noc2cccc(-c3ccc(NC(=O)Nc4ccc(C(F)(F)F)cc4)cc3)c12, the IC50 [2] is reported as 27 nM and the Activity [17] is reported as “inactive”.

In the case of Nc1noc2cccc(-c3ccc(NC(=O)c4ccccc4)cc3)c12, the IC50 [2] is reported as greater than 12500 nM, the IC50 [12] is reported as greater than 12500 nM and the IC50 [21] is reported as greater than 12.5 µM.

In the case of Nc1noc2cccc(-c3ccc(NC(=O)Nc4ccccc4C(F)(F)F)cc3)c12, the IC50 [2] is reported as 23400 nM.

In the case of Nc1noc2cccc(-c3ccc(NC(=O)Nc4cccc(Br)c4)cc3)c12, the IC50 [2] is reported as 7 nM and the Activity [17] is reported as “inactive”.

With COc1ccc(-c2ccc(NC(=O)Nc3cc(C)ccc3F)cc2)c2c(N)noc12 the IC50 [1] was 24 nM, the clearance [18] was 16.7 mL/min/kg and the IC50 [2] was 43 nM. For the same compound, the IC50 [3] was 96 nM, the IC50 [6] was greater than 50 µM and the IC50 [7] was greater than 50 µM. For the same compound, the IC50 (Angiopoietin-1 receptor) was 249 nM, the IC50 [9] was greater than 50 µM and the inhibition in vivo at 30 mg/kg/day (HT-1080 [22]) was 55%. For the same compound, the IC50 [11] was 27 nM, the IC50 [12] was 36 nM and the ED50 (Mus musculus) was 3.2 mg/kg. The bioavailability [13] was 34%, the IC50 [23] was greater than 30 µM and the half-life [19] was 39.6 min. The Vd [20] was 0.94 L/kg and the AUC [15] was 8.5 µM·h.

For Cc1cccc(NC(=O)Nc2ccc(-c3cccc4onc(N)c34)cc2)c1, the IC50 [2] was 12 nM and the IC50 [12] was 14 nM.

For Nc1noc2cccc(-c3ccc(NC(=O)/C=C/c4cccc(C(F)(F)F)c4)cc3)c12, the IC50 [2] was greater than 12500 nM, the IC50 [12] was 1400 nM and the IC50 [21] was greater than 12.5 µM.

Compound Cc1ccc(F)c(NC(=O)Nc2ccc(-c3cccc4[nH]nc(N)c34)cc2)c1 [LINIFANIB] has a clearance [18] of 18.3 mL/min/kg, an IC50 [9] greater than 50 µM and an inhibition in vivo at 30 mg/kg/day (HT-1080 [22]) of 85%. The ED50 (Mus musculus) was 0.4 mg/kg, the half-life [19] was 102 min and the AUC at 24 h [24] was 19.1 µM·h. For the same compound, the Vd [20] was 2.7 L/kg.

For COc1cccc(NC(=O)Nc2ccc(-c3cccc4onc(N)c34)cc2)c1, the IC50 [2] was 4 nM and the Activity [17] was “inactive”.

In the case of Nc1noc2cccc(-c3ccc(NC(=O)Nc4ccc(F)cc4)cc3)c12, the IC50 [2] is reported as 7 nM and the IC50 [12] is reported as 4 nM.

With Cc1ccc(NC(=O)Nc2ccc(-c3cccc4onc(N)c34)cc2)cc1F the IC50 [2] was 12 nM and the Activity [17] was “inactive”.

In the case of Cc1ccc(F)c(NC(=O)Nc2ccc(-c3ccc(CN4CCOCC4)c4onc(N)c34)cc2)c1, the IC50 [2] is reported as 114 nM, the IC50 [12] is reported as 82 nM and the IC50 [21] is reported as 0.365 µM.

With Nc1noc2cccc(-c3ccc(NC(=O)Nc4ccc(F)c(C(F)(F)F)c4)cc3)c12 the clearance [18] was 13.2 mL/min/kg, the IC50 [2] was 62 nM and the inhibition in vivo at 30 mg/kg/day (HT-1080 [22]) was 63%. It also gave an IC50 [12] of 28 nM, an ED50 (Mus musculus) of 5.4 mg/kg and a bioavailability [13] of 100%. It also gave a half-life [19] of 72 min, a Vd [20] of 1.4 L/kg and an AUC [15] of 33.1 µM·h.

With Nc1noc2cccc(-c3ccc(NC(=O)Nc4cccc(F)c4)cc3)c12 the IC50 [2] was 11 nM and the Activity [17] was “inactive”.

For Cc1ccc(F)c(NC(=O)Nc2ccc(-c3ccc(OC(F)(F)F)c4onc(N)c34)cc2)c1, the IC50 [2] was 294 nM and the IC50 [12] was 58 nM.

Nc1noc2cccc(-c3ccc(NC(=O)Nc4ccc(OC(F)(F)F)cc4)cc3)c12 gave an IC50 [2] of 102 nM and an IC50 [12] of 27 nM.

In the case of Nc1noc2cccc(-c3ccc(NC(=O)Nc4cc(C(F)(F)F)ccc4F)cc3)c12, the IC50 [2] is reported as 339 nM.
